The source of these data is patent publication US10385034B2, “Flavonoid IL-17A inhibitors” (THE CLEVELAND CLINIC FOUNDATION, priority 2014, dated 2019).

“Also recorded” adds a separate entry of the source.

As a reminder, the Kd is the concentration at which binding is half-saturated.

Experiment [1] has as its system IL-17A-induced epidermal hyperplasia. The experiment in a line: Intradermal injection of IL-17A (skin epidermal hyperplasia). Format: in vivo, mouse. Here is the method: Intradermal injection of IL-17A. The ears of 8-week WT C57BL/6 female mice were injected intradermally with 20 μl PBS, either alone or containing 500 ng recombinant mouse IL-17A with or without A18 (30 μg per mouse). After 7 days after injection, the mice ears were fixed in 10% formalin in PBS and stained with hematoxylin and eosin (H&E). Epidermal thickness was quantified by Image J.
(§1) Real-time PCR. Total RNA was extracted from spinal cords and cultured astrocytes with TRIzol (Invitrogen) according to the manufacturer's instructions. All gene expression results are expressed as arbitrary units relative to expression of the gene encoding beta-actin.

In a further experiment the test system is HFD-induced AHR. The experiment can be described thus: High-fat-diet-induced airway hyperreactivity. The experiment is classed as in vivo. The settings on record: A18 30 μg per mouse i.p., last 10 days of HFD.
Experiment [2] concerns IL-17A-induced intraperineal neutrophilia. The experiment in a line: Peritoneal administration of IL-17A (neutrophilia). Format: in vivo. The settings on record: BALB/c mice, A18 30 μg per mouse i.p. co-injected with IL-17A 1 μg, 6 h. Here is the method:
Peritoneal administration of IL-17A. Eight-week WT BALB/cJ female mice were subjected to intraperitoneal injection (i.p.) of PBS, 1 μg of IL-17A with or without A18 (30 μg per mouse). The peritoneal cavity was lavaged with 5 ml ice-cold PBS at 6 h post treatment. Peritoneal cells were counted and quantified by differential cell counting.

The target in a further experiment is T1, IL-17A-IL-17RA binding (Homo sapiens, UniProt Q96F46).
T1 construct: human IL-17RA-Fc (extracellular domain 1-322 AA fused with Fc region of human IgG1 at the C-terminus); purchased Sino Biological Inc
T1 sequence (Q96F46 33-322): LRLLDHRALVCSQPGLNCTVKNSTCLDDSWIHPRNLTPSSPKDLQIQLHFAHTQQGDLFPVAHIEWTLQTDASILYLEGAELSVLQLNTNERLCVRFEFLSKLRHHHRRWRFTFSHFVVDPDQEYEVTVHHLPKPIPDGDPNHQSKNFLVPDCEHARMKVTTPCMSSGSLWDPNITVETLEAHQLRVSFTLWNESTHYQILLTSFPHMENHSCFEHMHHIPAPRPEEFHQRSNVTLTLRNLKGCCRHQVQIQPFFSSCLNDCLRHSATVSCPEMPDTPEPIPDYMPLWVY
The experiment can be described thus: IL-17A-IL-17RA binding assay (ELISA). The settings on record: serial dilutions of compound. As for the experimental part:
IL-17A-IL-17RA binding assay. ELISA plates were coated with human IL-17A or IL-17E (2 μg/ml in PBS). Human IL-17RA-Fc or human IL-17RB-Fc (150 ng/ml) were added and incubated for 1 h, followed by incubation with human HRP-conjugated anti human IgG Fc secondary antibody for 1 h. ELISA were finally developed using tetramethylbenzidine substrate.
Background: ELISA stands for enzyme-linked immunosorbent assay.

Experiment [3] concerns IL-17A-induced gene expression in lung tissue. The experiment in a line: Intranasal injection of IL-17A (lung inflammation). Format: in vivo. The settings on record: BALB/c mice, A18 4 μg per mouse intranasal with IL-17A 1 μg, 4 h. Here is the method:
Intranasal injection of IL-17A. Eight-week WT BALB/cJ female mice were subjected to intranasal injection of PBS, 1 μg of IL-17A with or without A18 (4 μg per mouse). […]
as §1

In experiment [4] the target is T2, recombinant human IL-17RA ectodomain (Homo sapiens, UniProt Q96F46).
T2 construct: The recombinant human IL-17RA ectodomain was expressed in baculovirus-infected Sf-9 cells; made in house; host or cells: baculovirus-infected Sf-9 cells
T2 sequence (Q96F46 33-320 limits assumed): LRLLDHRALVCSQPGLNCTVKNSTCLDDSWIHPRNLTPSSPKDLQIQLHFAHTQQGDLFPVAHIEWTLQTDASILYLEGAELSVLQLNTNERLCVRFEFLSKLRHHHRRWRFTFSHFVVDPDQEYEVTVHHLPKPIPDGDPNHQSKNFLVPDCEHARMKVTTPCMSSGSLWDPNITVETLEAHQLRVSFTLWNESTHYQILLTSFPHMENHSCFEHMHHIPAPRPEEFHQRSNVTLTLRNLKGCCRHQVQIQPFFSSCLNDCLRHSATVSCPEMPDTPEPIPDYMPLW
The experiment in a line: Fluorescence binding measurement (fluorescence quenching). The settings on record: fluorescence-based method, IL-17RA in solution, 1 uM. As for the experimental part:
Fluorescence binding measurement. The recombinant human IL-17RA ectodomain was expressed in baculovirus-infected Sf-9 cells and purified as described previously. Liu et al., Nat Commun 4, 1888 (2013). The compound A18 or A0 was obtained from NCI. The purified IL-17RA protein (final concentration at 1 uM) was mixed with various concentrations of compound A0 in the solution consisting of 20 mM Tris, pH 7.5, 150 mM NaCl, and 5% DMSO in a 96-well black flat-bottom microplate (Greiner Bio-One). The reaction mixtures were incubated at room temperature at 120 rpm for 10 min, and fluorescence intensity was measured on a 2300 EnSpire Multimode Plate Reader (PerkinElmer) with excitation (265 nm) and emission (336 nm) wavelengths for A18 or with excitation (240 nm) and emission (337 nm) wavelengths for A0. The fluorescence signal (relative fluorescence intensity) was obtained by subtracting the background fluorescence of buffer and compound A0, and plotted as a function of the concentration of compound A0. The fluorescence quenching was observed as a consequence of the protein-ligand interaction at dose-dependent concentrations of compound A0, and the binding constant of compound A0 to IL-17RA was estimated by one-site total binding fit model (GraphPad Prism).

Protocol for HFD-induced AHR: High-fat-diet intervention. Starting at 4 weeks of age, WT C57BL/6 male mice were fed with 10 kcal % fat chow diet (CD) or a 60 kcal % HFD for 14 weeks. HFD+A18 group of mice were i.p. injected with A18 (30 μg per mouse) daily for 10 days before subjection to AHR measurement. Both CD (D12450B) or HFD (D12492) were obtained from Research Diets, Inc. Measurement of AHR. AHR was measured in mice in response to increasing doses of inhaled methacholine. Mice were anesthetized with i.p. pentobarbital sodium (60 mg/kg). After the intubation and the placement of a 19-gauge cannula through a tracheotomy incision, the cannula was affixed with a silk suture ligation. Mice were connected to a computer-controlled piston ventilator run at a rate of 150 breaths/min, a tidal volume of 0.2 ml, and a positive end-expiratory pressure of 2-3 cm H2O (Flexivent). Mice were then administered a muscle relaxant (pancuronium bromide, 800 mg/kg), and the lungs were expanded twice to total lung capacity at an amplitude pressure of 30 cm H2O. […] Lung resistance (RL) was obtained through forced oscillation technique by FlexiVent 5.2 (Flexivent; Scireq) software. Real-time PCR. […] All gene expression results are expressed as arbitrary units relative to expression of the gene encoding beta-actin.

Consider `Oc1cc(O)c2cc(O)c(-c3ccc(O)c(O)c3)[o+]c2c1.[Cl-]` [A18, 2-(3,4-Dihydroxyphenyl)-3,5,7-trihydroxy-1-benzopyrylium chloride], for which, in experiment [1] (C57Bl/6 ears, IL-17A 500 ng with A18 30 μg per mouse intradermal, 6 consecutive days), the IL-17A-dependent epidermal hyperplasia result is “greatly reduced”. Moreover, in experiment [1] (RT-PCR), the “Levels of C-myc, Pled and Steap4 in IL-17A-treated ears” value was “attenuated”. Also, in the experiment on HFD-induced AHR (C57Bl/6 mice), the “HFD-induced AHR” value is “substantially attenuated” and the “HFD-induced inflammatory gene expression in lung” value is “substantially attenuated”. For the same compound, the “HFD-induced production of IL-17A in the lung” value in the experiment with HFD-induced AHR (cultured lung cells) is given as “no impact”. For the same compound, in experiment [2], the IL-17A-induced intraperineal neutrophilia entry was “greatly attenuated”. The “Inhibition of IL-17A-IL-17RA binding” value on IL-17A-IL-17RA binding was “excellent inhibition efficacy; also recorded: great inhibition efficacy”. Besides, the “IL-17A-induced gene expression in lung” value in experiment [3] was “greatly inhibited”. The Kd in experiment [4] was ~5 µM.
